Values of other authors, collected in patent US6921530B1, “Low dose IL-2 for potentiation of immunity” (Cornell Research Foundation, Inc., priority 1999, dated 2005).
Values joined by “and” are separate entries in the source; they are usually repeats but may differ in a detail not shown here. Equal values may be shown once.

Tested on: HCV
Conditions: cited from earlier work

## Interferon-α [IFN-α]
3×10^6 units s.c. three times a week over one year, monotherapy
  sustained response, % of patients: 35% and 28-43%
Daily IFN therapy
  initial delay before decline of plasma HCV viral load: 9 h
